Source: BindingDB's records for doi:10.1007/s10822-022-00478-x (Roche Innovation Center Basel, F. Hoffmann-La Roche Ltd., 2022)

Molecular target: cAMP and cAMP-inhibited cGMP 3',5'-cyclic phosphodiesterase 10A (Homo sapiens, UniProt Q9Y233)
Experiment: PDE10A assay
In short: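 Scintillation proximity readout of [3H]cGMP hydrolysis (50 nM final substrate, 15 min) by 2 ng/well human PDE10A after 15 min compound preincubation at RT, pH 7.5 with MgCl2. Four-parameter logistic fit gave IC50, reported as pIC50.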

| Structure (SMILES) | IC50 [nM] |
| --- | --- |
| Cn1ncc(C(=O)O)c1C(=O)Nc1ccn2nc(-c3cccnc3F)nc2c1 [Roche-Dataset for PDE10A, Compound 458] | 66 |
| Cn1cc(-c2ccccc2)nc1/C=C/c1ncc(Cl)nc1Cl [Roche-Dataset for PDE10A, Compound 465] | 824 |
| CNC(=O)c1cc2[nH]c(-c3ccccc3)nc2cc1NC(=O)c1ccnnc1 [Roche-Dataset for PDE10A, Compound 466] | 23 |
| Cn1cc(-c2ccccc2)nc1CCc1ccccn1 [Roche-Dataset for PDE10A, Compound 467] | 10000 |
| CN(C)c1nc(OCc2nc3ccccc3n2C)nc2ccc(Cl)cc12 [Roche-Dataset for PDE10A, Compound 470] | 119 |
| O=C(Nc1ccncc1F)c1ccc2cc(-c3ccccc3)nn2c1 [Roche-Dataset for PDE10A, Compound 471] | 933 |
| Cc1noc(C(F)(F)F)c1C(=O)Nc1ccn2nc(-c3ccccc3)nc2c1 [Roche-Dataset for PDE10A, Compound 478] | 9330 |
| CCn1nccc1C(=O)Nc1cc2nc(-c3ccccc3)[nH]c2cc1C(=O)NC [Roche-Dataset for PDE10A, Compound 482] | 11 |
| Cc1cnc(C)n2nc(CCc3nc(N4CCNC(=O)C4)nn3C)nc12 [Roche-Dataset for PDE10A, Compound 483] | 848 |
| CCOC(=O)c1cnn(C)c1C(=O)Nc1ccn2nc(N(C)C3CC3)nc2c1 [Roche-Dataset for PDE10A, Compound 486] | 58 |
| O=C1c2ccccc2C(=O)N1CCc1nc(-c2ccccn2)no1 [Roche-Dataset for PDE10A, Compound 490] | 5450 |
| O=C(NCCc1cccc(C(F)(F)F)c1)c1nc(C2CC2)cnc1Nc1cncnc1 [Roche-Dataset for PDE10A, Compound 491] | 83 |
| Cn1ncc(C(=O)N2CCOCC2)c1C(=O)Nc1ccn2nc(-n3ccnc3)nc2c1 [Roche-Dataset for PDE10A, Compound 496] | 104 |
| Cc1c(Cl)cc(Cl)c2nc(CCc3nc4ccccc4n3C)nn12 [Roche-Dataset for PDE10A, Compound 497] | 61 |
| O=C(Nc1ccn(CCC(F)(F)F)n1)c1nc(C2CC2)ccc1Nc1cncnc1 [Roche-Dataset for PDE10A, Compound 498] | 9.67 |

Compounds with a lower IC50, results first:

| IC50 [nM] | Structure (SMILES) |
| --- | --- |
| 3.12 | CN(C)c1nc2cc(NC(=O)c3c(C(=O)N4CCC4)cnn3C)ccc2s1 [Roche-Dataset for PDE10A, Compound 461] |
| 4.23 | Cc1ccc2nc(OCc3nc(-c4ccccc4)cn3C)c(Cl)nc2c1 [Roche-Dataset for PDE10A, Compound 463] |
| 0.91 | Cn1nc(-c2ccc3ccccc3n2)cc1NC(=O)c1c(C(=O)N2CCC2)cnn1C [Roche-Dataset for PDE10A, Compound 468] |
| 0.48 | Cn1ncc(C(=O)N2CCC2)c1C(=O)Nc1ccc2nc(N3CCCC3)nn2c1 [Roche-Dataset for PDE10A, Compound 469] |
| 8.21 | COc1ccccc1-c1cn2c(n1)C[C@H](NC(=O)c1c(C(=O)N(C)C)cnn1C)CC2 [Roche-Dataset for PDE10A, Compound 473] |
| 5.37 | Cc1cnc(C)n2nc(/C=C/c3nc(N4CCCC4)nn3C)nc12 [Roche-Dataset for PDE10A, Compound 474] |
| 8.2 | Cc1cc(C)n2nc(CCc3nc(N4CCCC4)nn3C3CC3)nc2n1 [Roche-Dataset for PDE10A, Compound 475] |
| 6.66 | O=C(Nc1ccn(CCCC(F)(F)F)n1)c1nc(C2CC2)ccc1Nc1cncnc1 [Roche-Dataset for PDE10A, Compound 485] |
| 5.27 | CN(C)c1nc2cc(NC(=O)c3c(C(=O)N4CCCC4)cnn3C)ccn2n1 [Roche-Dataset for PDE10A, Compound 489] |
| 5.55 | CCN(C)c1nc2cc(NC(=O)c3c(C(=O)N4CCOCC4)cnn3C)ccn2n1 [Roche-Dataset for PDE10A, Compound 493] |
| 7.85 | Cc1ccccc1-c1cn2c(n1)C[C@H](NC(=O)c1c(C(=O)N3CCC3)cnn1C)CC2 [Roche-Dataset for PDE10A, Compound 495] |
